According to patent US20080221074A1, “Drug Screen and Treatment Method” (priority 2006, published 2008):

Tests used:
[1] = metabolic stability in liver microsomes, species not stated; conditions: compared with androst-5-ene-3β,17β-diol
Method: The protocol was performed as follows. […] (2) Set up samples as follows. […] (4) The internal standard/acetonitrile solution.

NF-κB = assay: inhibition of NF-κB activation in NF-κB-bla THP-1 cells after LPS stimulation; format: cell-based, human; conditions: Homo sapiens, THP-1
From the text: Inhibition of NF-κB in vitro. […] Activation of NF-κB increases expression of a number of genes that mediate inflammation. This protocol used human THP-1 cells, which are human mononuclear blood cells with a monocyte phenotype. The cell line, referred to as NF-κB-bla THP-1, contained a β-lactamase reporter gene under the control of the NF-kB response element (Invitrogen, CellSensor™, product No. K1176). In this cell line, the β-lactamase reporter gene is stably integrated in the THP-1 cells. This cell line was used to detect agonists or antagonists of the NF-κB signaling pathway. These NF-κB-bla THP-1 cells respond to the presence of tumor necrosis factor alpha (TNFα) or bacterial lipopolysaccharide (LPS) by increased expression of the β-lactamase reporter gene. The level of β-lactamase enzyme activity was measured by fluorescence resonance energy transfer ratiometric detection. TNFα and LPS are both potent inflammation-inducing agents that activate NF-κB in THP1 cells. In this assay, compounds that decrease NF-κB activity, and thus β-lactamase, in the presence of TNFα or LPS are exerting an anti-inflammation activity.
The NF-κB-bla THP-1 cells were maintained by passaging or feeding as needed. […] The cells were plated at 20,000 cells/well in a 384-well Black-wall, clear bottom assay plates (Costar#3712-TC low fluorescence background plates) approximately 24 hours before adding either TNFα at 10 ng/mL or LPS at 0.2 ng/mL to activate NF-κB.
The assays were usually conducted 2-4 times for each compound and the values shown below are averages for each compound.

[2] = tested on: carrageenan-λ induced pleurisy; assay: carrageenan-λ induced lung (pleural cavity) inflammation; format: in vivo, CD1 male mice; conditions: for number of neutrophils relative to negative control group (set at 100%): exudate 4 h after
From the text: Treatment of lung inflammation. Three compounds, 3β,16α-dihydroxy-17-oxoandrostane, 3α,16β,17β-trihydroxyandrostane and 3α,16α,17α-trihydroxyandrostane were used to treat inflammation in mice essentially as described (D. Auci et al., Ann. New York Acad. Sci. 1051:730-742 2005). Five to 8 week old CD1 male mice (Charles River, Calco, Italy) were used for the study. The animals were housed in a controlled environment and provided with standard rodent chow and water. Animal care was in compliance with applicable regulations on protection of animals. Mice were allocated into one of the following groups: (1) mice treated with 2% carrageenan-k in saline (carrageenan-λ treated control group), (2) mice treated with 0.1 mg, 0.01 mg or 0.001 mg 3β,16α-dihydroxy-17-oxoandrostane by subcutaneous (s.c.) injection 24 h and 1 h before carrageenan-λ administration, (3) mice treated with 0.1 mg, 0.01 mg or 0.001 mg of 3α,16α,17α-trihydroxyandrostane by s.c. injection 24 and 1 h before carrageenan; (4) mice treated with 0.1 mg, 0.01 mg or 0.001 mg […],16β,17β-trihydroxyandrostane by s.c. injection 24 h and 1 h before carrageenan-λ administration; (5) mice treated with vehicle (0.1% carboxymethylcellulose, 0.9% saline, 2% tween 80, 0.05% phenol) s.c. 24 h and 1 h before carrageenan-λ administration; (6) mice treated with rabbit anti-mouse polyclonal anti-TNF-α antibody (200 μg) given as an intraperitoneal bolus 24 h and 1 h before carrageenan-λ administration (positive control group); and (7) sham-operated mice that were not treated with carrageenan-λ. Each group consisted of 10 mice. All treatments were given in a final volume of 100 μL. Lung (pleural cavity) inflammation was induced as follows. The mice were anaesthetised with isoflurane and a skin incision was made at the level of the left sixth intercostal space. The underlying muscle was dissected and either 0.1 mL saline (control) or 0.1 mL saline containing 2% λ-carrageenan was injected into the pleural cavity. The carrageenan-λ is a potent inducer of inflammation, which is manifested in this protocol by accumulation of fluid and neutrophils in the pleural cavity. The incision was closed with a suture and the animals were allowed to recover.
At 4 h after the injection of carrageenan-λ, the animals were euthanized by exposure to CO2. The chest was carefully opened and the pleural cavity rinsed with 1 mL of saline solution containing heparin (5 U/mL) and indomethacin (10 μg/mL). The exudate and washing solution were removed by aspiration and the total volume measured. Any exudate contaminated with blood was discarded. The amount of exudate was calculated by subtracting the injected 1 mL volume from the total pleural cavity volume that was recovered. The neutrophils in the exudate were suspended in phosphate-buffer saline and counted with an optical microscope in a Burker's chamber after Trypan Blue staining. The results were analysed by one-way ANOVA followed by a Bonferroni post-hoc test for multiple comparisons. A p-value less than 0.05 was considered significant. For statistical analysis each group was compared to the control group of mice that were challenged with carrageenan-k and received no other treatment.
The table below describes the number of neutrophils from the treated animal groups relative to untreated control animals that were exposed to carrageenan-λ, but not treated with anything else (negative control group). The neutrophil number for the negative control group was set at 100% and other groups were compared to this.

[3] = tested on: human T lymphocytes (PBMC); assay: human mixed lymphocyte reaction (MLR); format: cell-based; conditions: 300 nM
From the text: Human mixed lymphocyte reaction (MLR). The capacity of 3β,16α-dihydroxy-17-oxoandrostane, 3β,17β-dihydroxy-16-oxoandrostane, 17α-ethynylandrost-5-ene-3β,7β,17β-triol, and 17β-aminoandrost-5-ene-3β-ol to affect antigen specific stimulation in which human T lymphocytes respond to a specific foreign antigen (major histocompatibility complex).
Blood samples were obtained from 3 (2 males, […]) fasting, healthy human volunteers of 23-31 years old. […] The subjects were bled between 9 and 10 AM to limit possible fluctuations in the circulating levels of hormones or cytokines that could have influenced the in vitro responses of their lymphocytes. Peripheral blood mononuclear cells (PBMC) were isolated by centrifugation on Ficoll-Hypaque (density 1.077, Biochrom AG, Berlin, Germany) gradients and resuspended in culture medium (RPMI 1640 supplemented with 2 mM L-glutamine, penicillin (100 U/mL) and streptomycin ([…]) (Invitrogen s.rl., Milan, Italy). Autologous (responder) inactivated plasma was used at 10%. Five hundred thousand responder PBMC (PBMCr) and 500,000 allogeneic irradiated (30 Gy) stimulator PBMC (PBMCs) were mixed at a ratio of 1:1 in 200 μL medium and cultured for 6 days in flat bottom 96 well plates (Nunc, Roskilde, Denmark) at a concentration of 300 nM or 30 nM for each of the 4 compounds. The compounds were dissolved in ethanol and then diluted to the desired concentration with culture medium leading to a final solution containing 0.01% of ethanol. This vehicle was used as control. Controls also included PBMCr and PBMCs cultured separately. During the last 8 hours of the culture period the PBMC were pulsed with […] [^3H] thymidine (Amersham, Milan, Italy). The cells were then harvested and radioactivity incorporation measured with a beta cell counter. The mean cpm of quadruplicate wells was calculated. Proliferation of T cells was expressed as a stimulation index: SI=cpm (PMBCs xPBMCr)/cpm (PBMCr)+cpm (PBMCs). Statistical analysis was performed using the Student's t test. The cpm obtained from quadruplicate of each test compound were compared to proliferative responses obtained in control PBMCr and PBMCs cultured in the presence of the vehicle. Differences were considered significant at p<0.05.

EAE = assay: experimental allergic encephalomyelitis (EAE), PLP 139-151; format: in vivo, female SJL/J mice; conditions: 5 mg/kg daily oral gavage; through day 26
From the text: Treatment of autoimmune neurodegeneration. Three compounds, 17β-aminoandrost-5-ene-3β-ol, 17β-dimethylaminoandrost-5-ene-3β-ol and 17β-methylaminoandrost-5-ene-3β-ol were characterized for their capacity to ameliorate experimental allergic encephalomyelitis (EAE) in mice. This demyelinating condition is extensively used as a model for multiple sclerosis in humans and for testing of new therapies for treating multiple sclerosis, e.g., B. F. Bebo Jr. et al., J. Neurosci. Res. 52:420-426 1998; R. R. Voskuhl et al., Neuroscientist, 7:258-270 2001; H. Offner et al., J. Neuroimmunol., 130:128-139 2002.
In this protocol, the compounds were administered to female SJL/J mice by oral gavage at the onset of disease symptoms. An antigen was used to initiate the EAE condition in the mice. […] Immunization with this peptide antigen initiates an autoimmune Thl mediated demyelinating disease of the central nervous system. The antigen was prepared by solid phase synthesis and purified by high-performance liquid chromatography. […] The immunization protocol was subcutaneous injection over four sites on the hind flank on day 0. After immunization. the mice were assessed daily for clinical signs of EAE using the following scale: 0=no clinical signs or symptoms; 1=limp tail; 2=mild hind limb weakness and limp tail; 3=moderate hind limb weakness and limp tail or mild ataxia; 4=severe hind limb weakness and mild forearm weakness with moderate ataxia; 5=paraplegia with no more than moderate forelimb weakness; 6=paraplegia with severe forelimb weakness or severe ataxia or moribund condition.
Mice in the vehicle control group began to show observable symptoms of EAE at about 10-11 days after immunization with the PLP antigen, which is typical for the EAE disease model. The animals were dosed daily with 17β-aminoandrost-5-ene-3β-ol, 17β-dimethylaminoandrost-5-ene-3β-ol or 17β-methylaminoandrost-5-ene-3β-ol by oral gavage beginning at day 1, which was 1 day after immunization.

[4] = tested on: ionizing radiation exposure; assay: survival after lethal total body irradiation (10 Gy); format: in vivo, female B6D2F1 mice; conditions: 0.6 mg s.c. daily for 3 days
Method: Treatment of ionizing radiation exposure. The effect of selected F1Cs on survival of lethally-irradiated female B6D2F1 mice were compared to control animals treated with vehicle alone. […] For Group 4, test article was administered as a 50 μL volume, by intramuscular injection for three consecutive days. The formulation was a a suspension containing 0.1% w/v carboxymethyl-cellulose, 0.9% w/v sodium chloride and 0.05% v/v phenol. The formulations were agitated to uniformly resuspend the Fl C before syringing, and injected into animals within a few minutes of drawing into the syringe to prevent settling in the syringe.
The groups of animals were treated as follows. […] The number of surviving animals is shown for day 6, 7, 12 and 21.

Structure (SMILES)	rate of metabolism by microsomes [1]	IC50 (NF-κB)	number of neutrophils relative to negative control group (set at 100%) ([2]; 0.01 mg s.c. 24 h and 1 h before carrageenan-λ)	number of neutrophils relative to negative control group (set at 100%) ([2]; 0.1 mg s.c. 24 h and 1 h before carrageenan-λ)	immune suppression (inhibition of the MLR) [3]	clinical severity of EAE symptoms (EAE)	number of surviving animals (groups of 12) ([4]; day 6)	number of surviving animals (groups of 12) ([4]; day 7)	number of surviving animals (groups of 12) ([4]; day 12)	number of surviving animals (groups of 12) ([4]; day 21)	anti-inflammation activity compared to vehicle controls ([2]; oral gavage, 1 mg and 0.1 mg (17α-ethynyl triol), 40 mg/kg (17β-amino compound))
C[C@]12CC[C@H]3[C@@H](CCC4C[C@H](O)CC[C@@]43C)[C@@H]1C[C@@H](O)[C@H]2O (stereo partly drawn) [3α,16α,17α-trihydroxyandrostane]	metabolized by microsomes at a rate similar to the androst-5-ene-3β,17β-diol reference compound	> 10 µM	45%	30%							
C[C@]12CC[C@H]3[C@@H](CC=C4C[C@@H](O)CC[C@@]43C)[C@@H]1CC[C@@H]2N [17β-aminoandrost-5-ene-3β-ol]					moderately immune suppressive	reduced the clinical severity	12	12	12	11	statistically significant anti-inflammation activity
C[C@]12CC[C@H]3[C@@H](CC=C4C[C@@H](O)CC[C@@]43C)[C@@H]1C[C@@H](O)[C@@H]2O [androst-5-ene-3β,16α,17β-triol]	metabolized by microsomes at a rate similar to the androst-5-ene-3β,17β-diol reference compound										
